The text below walks through data of patent US6369069B1 (Aventis Pharma Deutschland GmbH, priority 1998, dated 2002).

This assay concerns Na^+-dependent Cl^−/HCO3^− exchanger (NCBE). Kind of assay: Inhibition of the Na+-dependent Cl−/HCO3− exchanger (NCBE) in human endothelial cells (pHi recovery, BCECF fluorescence, FLIPR). The class given is cell-based. As to conditions: 10 μM. As for the experimental part: Inhibition of the Na^+-dependent Cl^−/HCO3^− exchanger (NCBE) in human endothelial cells
Human endothelial cells (ECV-304) were detached form culture flasks with the aid of trypsin/EDTA buffer (0.05/0.02% in phosphate buffer) and, after centrifugation (100 g, 5 min), taken up in a buffered saline solution (mmol/l: 115 NaCl, 20 NH4Cl, 5 KCl, 1 CaCl2, 1 MgSO4, 20 N-(2-hydroxyethyl)-piperazine-N[…]-2-ethanesulfonic acid (HEPES), 5 glucose and 1 g/l of bovine serum albumin; pH 7.4). This cell suspension was incubated at 37 °C. for 20 min with 5 μM BCECF acetoxymethyl ester. The cells were then washed and resuspended in a sodium- and bicarbonate-free buffer solution (mmol/l: 5 HEPES, 133.8 choline chloride, 4.7 KCl, 1.25 MgCl2, 0.97 K2HPO4, 0.23 KH2PO4, 5 glucose; pH 7.4).
For the subsequent fluorescence measurement in the FLIPR (Fluorescent Imaging Plate Reader), 100 μl of this cell suspension in each case containing 20,000 cells were added by pipette per well of a 96-well microtiter plate and this microtiter plate was centrifuged (100 g, 5 min). In the FLIPR, 100 μl of buffer solution in each case were then removed from a further prepared microtiter plate and added by pipette to each of the 96 wells of the measuring plate. In this case, for a 100% control, i.e. a recovery of the intracellular pH (pHi) by means of the NCBE, a bicarbonate- and sodium-containing buffer solution (mmol/l: 5 HEPES, 93.8 NaCl, 40 NaHCO3, 4.7 KCl, 1.25 CaCl2, 1.25 MgCl2, 0.97 Na2HPO4, 0.23 NaH2PO4, 5 glucose; pH 7.4) which contained 50 μM HOE 642 was used. For a 0% control, i.e. no pHi recovery at all, a bicarbonate-free, sodium-containing buffer solution (mmol/l: 5 HEPES, 133.8 NaCl, 4.7 KCl, 1.25 CaCl2, 1.25 MgCl2, 0.97 Na2HPO4, 0.23 NaH2PO4, 5 glucose; pH 7.4) to which 50 μM HOE 642 were also added was employed. The compounds according to the invention were added in various concentrations of the sodium- and bicarbonate-containing solution. After addition of the buffer solutions to the dye-loaded acidified cells situated in the measuring plate, the increase in the fluorescence intensity which corresponded to an increase in the pHi was determined in each well of the microtiter plate.
The kinetics were in this case recorded at 35° C. over a period of 2 minutes. The increase in the fluorescence intensities for different concentrations of the compounds according to the invention was related to the two controls and from this the inhibitory action of the substances was determined.
As to `N#CNS(=O)(=O)c1ccccc1-c1ccc(CN(Cc2ccc(C(F)(F)F)cc2)C(=O)Cc2ccccc2)cc1` [Example 129], the “Residual activity % of the NCBE at 10 μM” value is 47.4%.

For the molecule `COc1ccc(CCN(Cc2ccc(-c3ccccc3S(=O)(=O)NC#N)cc2)C(=O)Cc2ccccc2)cc1` [Example 130], the “Residual activity % of the NCBE at 10 μM” value is recorded as 77.8%. As for `N#CNS(=O)(=O)c1ccccc1-c1ccc(CN(Cc2ccccc2Cl)C(=O)C(C(=O)Cc2ccccc2)c2ccccc2)cc1` (stereo not shown) [Example 131], the “Residual activity % of the NCBE at 10 μM” value turned out to be 97.6%. In the case of `C[C@@H](c1ccccc1)N(Cc1ccc(-c2ccccc2S(=O)(=O)NC#N)cc1)C(=O)Cc1cccs1` [Example 132] it was 63.8%. In the case of `C[C@H](c1ccccc1)N(Cc1ccc(-c2ccccc2S(=O)(=O)NC#N)cc1)C(=O)Cc1cccs1` [Example 133] it was 40.9%; in that of `Cc1ccc(CN(Cc2ccc(-c3ccccc3S(=O)(=O)NC#N)cc2)C(=O)C(C(=O)Cc2ccccc2)c2ccccc2)cc1` (stereo not shown) [Example 135], 97.4%. In the case of `C[C@@H](c1ccccc1)N(Cc1ccc(-c2ccccc2S(=O)(=O)NC#N)cc1)C(=O)C(C(=O)Cc1ccccc1)c1ccccc1` (stereo partly shown) [Example 136] it was 93.6%; in that of `N#CNS(=O)(=O)c1ccccc1-c1ccc(CN(Cc2ccco2)C(=O)Cc2cccs2)cc1` [Example 139], 48.5%; in that of `CN(C)c1ccc(CN(Cc2ccc(-c3ccccc3S(=O)(=O)NC#N)cc2)C(=O)Cc2cccs2)cc1` [Example 140], 54.2%.

As for `N#CNS(=O)(=O)c1ccccc1-c1ccc(CN(CCc2cccs2)C(=O)Cc2cccs2)cc1` [Example 141], the “Residual activity % of the NCBE at 10 μM” value is 71.1%. Regarding `N#CNS(=O)(=O)c1ccccc1-c1ccc(CN(CCOc2ccccc2)C(=O)Cc2cccs2)cc1` [Example 142], the “Residual activity % of the NCBE at 10 μM” value was determined as 27.1%. In the case of `N#CNS(=O)(=O)c1ccccc1-c1ccc(CN(Cc2ccccc2Cl)C(=O)Cc2cccs2)cc1` [Example 143] it was 35.7%; in that of `N#CNS(=O)(=O)c1ccccc1-c1ccc(CN(CC2CC2)C(=O)Cc2cccs2)cc1` [Example 144], 60.3%; in that of `COc1cc(CN(Cc2ccc(-c3ccccc3S(=O)(=O)NC#N)cc2)C(=O)Cc2cccs2)cc(OC)c1OC` [Example 145], 39.6%. In the case of `N#CNS(=O)(=O)c1ccccc1-c1ccc(CN(Cc2ccncc2)C(=O)Cc2cccs2)cc1` [Example 146] it was 69.8%; in that of `N#CNS(=O)(=O)c1ccccc1-c1ccc(CN(Cc2ccc(F)cc2)C(=O)Cc2cccs2)cc1` [Example 147], 53.2%. With `N#CNS(=O)(=O)c1ccccc1-c1ccc(CN(Cc2ccco2)C(=O)Cc2ccc(Cl)cc2)cc1` [Example 148], the “Residual activity % of the NCBE at 10 μM” value is 45.6%. In the case of `CN(C)c1ccc(CN(Cc2ccc(-c3ccccc3S(=O)(=O)NC#N)cc2)C(=O)Cc2ccc(Cl)cc2)cc1` [Example 149] it was 77.4%; in that of `N#CNS(=O)(=O)c1ccccc1-c1ccc(CN(CCc2cccs2)C(=O)Cc2ccc(Cl)cc2)cc1` [Example 150], 44.7%. On to `N#CNS(=O)(=O)c1ccccc1-c1ccc(CN(CCOc2ccccc2)C(=O)Cc2ccc(Cl)cc2)cc1` [Example 151], for which the “Residual activity % of the NCBE at 10 μM” value was found to be 29.0%. Then `N#CNS(=O)(=O)c1ccccc1-c1ccc(CN(Cc2ccccc2Cl)C(=O)Cc2ccc(Cl)cc2)cc1` [Example 152], with 29.5%. In the case of `N#CNS(=O)(=O)c1ccccc1-c1ccc(CN(CC2CC2)C(=O)Cc2ccc(Cl)cc2)cc1` [Example 153] it was 46.1%; in that of `COc1ccc(CN(Cc2ccc(-c3ccccc3S(=O)(=O)NC#N)cc2)C(=O)Cc2ccc(Cl)cc2)c(OC)c1` [Example 154], 36.2%; in that of `COc1cc(CN(Cc2ccc(-c3ccccc3S(=O)(=O)NC#N)cc2)C(=O)Cc2ccc(Cl)cc2)cc(OC)c1OC` [Example 155], 34.2%. For the molecule `N#CNS(=O)(=O)c1ccccc1-c1ccc(CN(Cc2ccncc2)C(=O)Cc2ccc(Cl)cc2)cc1` [Example 156], the “Residual activity % of the NCBE at 10 μM” value is reported as 86.0%. With `N#CNS(=O)(=O)c1ccccc1-c1ccc(CN(Cc2ccc(F)cc2)C(=O)Cc2ccc(Cl)cc2)cc1` [Example 157], the “Residual activity % of the NCBE at 10 μM” value amounted to 24.9%. In the case of `CC(C)(C)CC(=O)N(Cc1ccc(-c2ccccc2S(=O)(=O)NC#N)cc1)Cc1ccco1` [Example 158] it was 57.9%; in that of `CC(C)(C)CC(=O)N(CCc1cccs1)Cc1ccc(-c2ccccc2S(=O)(=O)NC#N)cc1` [Example 159], 61.2%. Then `CC(C)(C)CC(=O)N(CCOc1ccccc1)Cc1ccc(-c2ccccc2S(=O)(=O)NC#N)cc1` [Example 160], with 71.6%; and `CC(C)(C)CC(=O)N(Cc1ccc(-c2ccccc2S(=O)(=O)NC#N)cc1)CC1CC1` [Example 161], with 81.6%; and `COc1cc(CN(Cc2ccc(-c3ccccc3S(=O)(=O)NC#N)cc2)C(=O)CC(C)(C)C)cc(OC)c1OC` [Example 162], with 30.2%.

As to `CC(C)(C)CC(=O)N(Cc1ccc(F)cc1)Cc1ccc(-c2ccccc2S(=O)(=O)NC#N)cc1` [Example 163], the “Residual activity % of the NCBE at 10 μM” value is 93.4%. As to `N#CNS(=O)(=O)c1ccccc1-c1ccc(CN(Cc2ccco2)C(=O)COc2ccccc2)cc1` [Example 164], the “Residual activity % of the NCBE at 10 μM” value is 76.4%. Then `N#CNS(=O)(=O)c1ccccc1-c1ccc(CN(CCc2cccs2)C(=O)COc2ccccc2)cc1` [Example 165], with 56.8%.

On to `N#CNS(=O)(=O)c1ccccc1-c1ccc(CN(CCOc2ccccc2)C(=O)COc2ccccc2)cc1` [Example 166], for which the “Residual activity % of the NCBE at 10 μM” value is reported as 57.9%.

Turning to `N#CNS(=O)(=O)c1ccccc1-c1ccc(CN(Cc2ccccc2Cl)C(=O)COc2ccccc2)cc1` [Example 167], the “Residual activity % of the NCBE at 10 μM” value is listed as 47.5%. For `N#CNS(=O)(=O)c1ccccc1-c1ccc(CN(CC2CC2)C(=O)COc2ccccc2)cc1` [Example 168], the “Residual activity % of the NCBE at 10 μM” value was 96.4%. Then `COc1ccc(CC(=O)N(CCc2cccs2)Cc2ccc(-c3ccccc3S(=O)(=O)NC#N)cc2)cc1` [Example 172], with 89.7%. `COc1ccc(CC(=O)N(CCOc2ccccc2)Cc2ccc(-c3ccccc3S(=O)(=O)NC#N)cc2)cc1` [Example 173]: the “Residual activity % of the NCBE at 10 μM” value is 76.4%.

Regarding `COc1ccc(CC(=O)N(Cc2ccc(-c3ccccc3S(=O)(=O)NC#N)cc2)Cc2ccccc2Cl)cc1` [Example 174], the “Residual activity % of the NCBE at 10 μM” value was determined as 50.2%. Then `COc1ccc(CC(=O)N(Cc2ccc(-c3ccccc3S(=O)(=O)NC#N)cc2)CC2CC2)cc1` [Example 175], with 93.2%; and `COc1ccc(CC(=O)N(Cc2ccc(-c3ccccc3S(=O)(=O)NC#N)cc2)Cc2cc(OC)c(OC)c(OC)c2)cc1` [Example 176], with 83.9%; and `COc1ccc(CC(=O)N(Cc2ccc(F)cc2)Cc2ccc(-c3ccccc3S(=O)(=O)NC#N)cc2)cc1` [Example 177], with 64.4%. For `CC(=O)N(Cc1ccc(-c2ccccc2S(=O)(=O)NC#N)cc1)Cc1ccco1` [Example 178], the “Residual activity % of the NCBE at 10 μM” value worked out at 70.6%. With `CC(=O)N(CCc1cccs1)Cc1ccc(-c2ccccc2S(=O)(=O)NC#N)cc1` [Example 179], the “Residual activity % of the NCBE at 10 μM” value was found to be 78.3%. Then `CC(=O)N(CCOc1ccccc1)Cc1ccc(-c2ccccc2S(=O)(=O)NC#N)cc1` [Example 180], with 70.9%; and `CC(=O)N(Cc1ccc(-c2ccccc2S(=O)(=O)NC#N)cc1)Cc1ccccc1Cl` [Example 181], with 80.8%; and `CC(=O)N(Cc1ccc(-c2ccccc2S(=O)(=O)NC#N)cc1)CC1CC1` [Example 182], with 74.9%. Consider `CC(=O)N(Cc1ccc(F)cc1)Cc1ccc(-c2ccccc2S(=O)(=O)NC#N)cc1` [Example 185], for which the “Residual activity % of the NCBE at 10 μM” value was determined as 85.0%.
